Results reported in US10144732B2 (BIOGEN MA INC., priority 2014, dated 2018).
Structures can show the parent of a compound that is named as a salt.

target: T1, Human ATX protein (Homo sapiens, UniProt Q13822); assay: ATX biochemical assay (FRET, FS-3 substrate); details: FRET assay, FS-3 2 μM, ATX 1.0 μg/mL, 30 minutes preincubation, 2 hours reaction at room temperature; read-out: IC50
T1 construct: made in house
Procedure, shortened: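 FRET read-out: cleavage of FS-3 (2 μM final) unquenches fluorescein, measured at 485/538 nm after 2 h at room temperature. Before substrate addition, in-house-expressed human autotaxin (1.0 μg/mL) sat with compound for 30 min in pH 7.4 Tris/NaCl/KCl/CaCl2/MgCl2 buffer containing fatty acid free-BSA at 1 mg/mL.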

Compound	IC50 [nM]
O=C(O)CC1CN(CC(=O)N2CCc3c(C(F)(F)F)nn(Cc4ccc(F)cc4)c3C2)C1 [Example 13-23, 2-(1-(2-(1-(4-Fluorobenzyl)-3-(trifluoromethyl)-4,5-dihydro-1H-pyrazolo[3,4-c]pyridin-6(7H)-yl)-2-oxoethyl)azetidin-3-yl)acetic acid TFA salt]	≤ 100
O=C(O)CC1CCN(CC(=O)N2CCc3c(C(F)(F)F)nn(Cc4ccc(Cl)cc4F)c3C2)C1 (stereo not drawn) [Example 13-24, 2-(1-(2-(1-(4-Chloro-2-fluorobenzyl)-3-(trifluoromethyl)-4,5-dihydro-1H-pyrazolo[3,4-c]pyridin-6(7H)-yl)-2-oxoethyl)pyrrolidin-3-yl)acetic acid TFA salt]	≤ 100
O=C(O)CC1CCN(CC(=O)N2CCc3c(C(F)(F)F)nn(Cc4ccc(F)cc4)c3C2)C1 (stereo not drawn) [Example 13-25, 2-(1-(2-(1-(4-Fluorobenzyl)-3-(trifluoromethyl)-4,5-dihydro-1H-pyrazolo[3,4-c]pyridin-6(7H)-yl)-2-oxoethyl)pyrrolidin-3-yl)acetic acid TFA salt]	≤ 100
O=C(CN[C@H]1C[C@@H](C(=O)O)C1)N1CCc2c(C(F)(F)F)nn(Cc3ccc(F)cc3)c2C1 [Example 13-28, cis-3-(2-(1-(4-Fluorobenzyl)-3-(trifluoromethyl)-4,5-dihydro-1H-pyrazolo[3,4-c]pyridin-6(7H)-yl)-2-oxoethylamino)cyclobutanecarboxylic acid TFA salt]	≤ 100
O=C(CN[C@H]1C[C@H](C(=O)O)C1)N1CCc2c(C(F)(F)F)nn(Cc3ccc(F)cc3)c2C1 [Example 13-29, trans-3-(2-(1-(4-Fluorobenzyl)-3-(trifluoromethyl)-4,5-dihydro-1H-pyrazolo[3,4-c]pyridin-6(7H)-yl)-2-oxoethylamino)cyclobutanecarboxylic acid TFA salt]	≤ 100
O=C(CN[C@H]1CC[C@@H](C(=O)O)CC1)N1CCc2c(C(F)(F)F)nn(Cc3ccc(F)cc3)c2C1 [Example 13-30, cis-4-(2-(1-(4-Fluorobenzyl)-3-(trifluoromethyl)-4,5-dihydro-1H-pyrazolo[3,4-c]pyridin-6(7H)-yl)-2-oxoethylamino)cyclohexanecarboxylic acid TFA salt]	≤ 100
O=C(CN[C@H]1CC[C@H](C(=O)O)CC1)N1CCc2c(C(F)(F)F)nn(Cc3ccc(F)cc3)c2C1 [Example 13-31, trans-4-(2-(1-(4-Fluorobenzyl)-3-(trifluoromethyl)-4,5-dihydro-1H-pyrazolo[3,4-c]pyridin-6(7H)-yl)-2-oxoethylamino)cyclohexanecarboxylic acid TFA salt]	≤ 100
O=C(O)CCNCC(=O)N1CCc2c(C(F)(F)F)nn(Cc3ccc(Cl)cc3F)c2C1 [Example 13-32, 3-(2-(1-(4-Chloro-2-fluorobenzyl)-3-(trifluoromethyl)-4,5-dihydro-1H-pyrazolo[3,4-c]pyridin-6(7H)-yl)-2-oxoethylamino)propanoic acid TFA salt]	≤ 100
O=C(O)CCCCC(=O)N1CCc2c(C(F)(F)F)nn(Cc3ccc(Cl)cc3F)c2C1 [Example 14-1, 6-(1-(4-Chloro-2-fluorobenzyl)-3-(trifluoromethyl)-4,5-dihydro-1H-pyrazolo[3,4-c]pyridin-6(7H)-yl)-6-oxohexanoic acid]	≤ 100
O=C(O)CCCC(=O)N1CCc2c(C(F)(F)F)nn(Cc3ccc(Cl)cc3F)c2C1 [Example 14-2, 5-(1-(4-Chloro-2-fluorobenzyl)-3-(trifluoromethyl)-4,5-dihydro-1H-pyrazolo[3,4-c]pyridin-6(7H)-yl)-5-oxopentanoic acid]	≤ 100

Next, values leading:

IC50 [nM]	Compound
≤ 100	CC(C(=O)N1CCc2c(C(F)(F)F)nn(Cc3ccc(Cl)cc3F)c2C1)N1CCC(C(=O)O)CC1 (stereo not drawn) [Example 13-8, 1-(1-(1-(4-Chloro-2-fluorobenzyl)-3-(trifluoromethyl)-4,5-dihydro-1H-pyrazolo[3,4-c]pyridin-6(7H)-yl)-1-oxopropan-2-yl)piperidine-4-carboxylic acid]
≤ 100	O=C(O)C1CC2CN(CC(=O)N3CCc4c(C(F)(F)F)nn(Cc5ccc(Cl)cc5F)c4C3)CC2C1 (stereo not drawn) [Example 13-9, 2-(2-(1-(4-Chloro-2-fluorobenzyl)-3-(trifluoromethyl)-4,5-dihydro-1H-pyrazolo[3,4-c]pyridin-6(7H)-yl)-2-oxoethyl)octahydrocyclopenta[c]pyrrole-5-carboxylic acid TFA salt]
≤ 100	O=C(O)C1CC2CN(CC(=O)N3CCc4c(C(F)(F)F)nn(Cc5ccc(F)cc5)c4C3)CC2C1 (stereo not drawn) [Example 13-10, 2-(2-(1-(4-Fluorobenzyl)-3-(trifluoromethyl)-4,5-dihydro-1H-pyrazolo[3,4-c]pyridin-6(7H)-yl)-2-oxoethyl)octahydrocyclopenta[c]pyrrole-5-carboxylic acid TFA salt]
≤ 100	CC1(C)C(NCC(=O)N2CCc3c(C(F)(F)F)nn(Cc4ccc(Cl)cc4F)c3C2)CC1C(=O)O (stereo not drawn) [Example 13-11, 3-((2-(1-(4-Chloro-2-fluorobenzyl)-3-(trifluoromethyl)-4,5-dihydro-1H-pyrazolo[3,4-c]pyridin-6(7H)-yl)-2-oxoethyl)amino)-2,2-dimethylcyclobutanecarboxylic acid TFA salt]
≤ 100	O=C(O)C1CCN(CC(=O)N2CCc3c(C(F)(F)F)nn(Cc4ccc(F)cc4)c3C2)C1 (stereo not drawn) [Example 13-12, 1-(2-(1-(4-Fluorobenzyl)-3-(trifluoromethyl)-4,5-dihydro-1H-pyrazolo[3,4-c]pyridin-6(7H)-yl)-2-oxoethyl)pyrrolidine-3-carboxylic acid]
≤ 100	O=C(O)CC1CCN(CC(=O)N2CCc3c(C(F)(F)F)nn(Cc4ccc(Cl)cc4F)c3C2)CC1 [Example 13-13, 2-(1-(2-(1-(4-Chloro-2-fluorobenzyl)-3-(trifluoromethyl)-4,5-dihydro-1H-pyrazolo[3,4-c]pyridin-6(7H)-yl)-2-oxoethyl)piperidin-4-yl)acetic acid TFA salt]
≤ 100	CC1(C)C(NCC(=O)N2CCc3c(C(F)(F)F)nn(Cc4ccc(F)cc4)c3C2)CC1C(=O)O (stereo not drawn) [Example 13-14, 3-((2-(1-(4-Fluorobenzyl)-3-(trifluoromethyl)-4,5-dihydro-1H-pyrazolo[3,4-c]pyridin-6(7H)-yl)-2-oxoethyl)amino)-2,2-dimethylcyclobutanecarboxylic acid TFA salt]
≤ 100	O=C(O)CC1CCN(CC(=O)N2CCc3c(C(F)(F)F)nn(Cc4ccc(F)cc4)c3C2)CC1 [Example 13-15, 2-(1-(2-(1-(4-Fluorobenzyl)-3-(trifluoromethyl)-4,5-dihydro-1H-pyrazolo[3,4-c]pyridin-6(7H)-yl)-2-oxoethyl)piperidin-4-yl)acetic acid TFA salt]
≤ 100	O=C(O)CCNCC(=O)N1CCc2c(C(F)(F)F)nn(Cc3ccc(F)cc3)c2C1 [Example 13-16, 3-(2-(1-(4-Fluorobenzyl)-3-(trifluoromethyl)-4,5-dihydro-1H-pyrazolo[3,4-c]pyridin-6(7H)-yl)-2-oxoethylamino)propanoic acid TFA salt]
≤ 100	O=C(O)C1CN(CC(=O)N2CCc3c(C(F)(F)F)nn(Cc4ccc(Cl)cc4F)c3C2)C1 [Example 13-17, 1-(2-(1-(4-Chloro-2-fluorobenzyl)-3-(trifluoromethyl)-4,5-dihydro-1H-pyrazolo[3,4-c]pyridin-6(7H)-yl)-2-oxoethyl)azetidine-3-carboxylic acid TFA salt]
≤ 100	O=C(O)C1CN(CC(=O)N2CCc3c(C(F)(F)F)nn(Cc4ccc(F)cc4)c3C2)C1 [Example 13-18, 1-(2-(1-(4-Fluorobenzyl)-3-(trifluoromethyl)-4,5-dihydro-1H-pyrazolo[3,4-c]pyridin-6(7H)-yl)-2-oxoethyl)azetidine-3-carboxylic acid TFA salt]
≤ 100	O=C(O)C1CCCN(CC(=O)N2CCc3c(C(F)(F)F)nn(Cc4ccc(F)cc4)c3C2)CC1 (stereo not drawn) [Example 13-19, 1-(2-(1-(4-Fluorobenzyl)-3-(trifluoromethyl)-4,5-dihydro-1H-pyrazolo[3,4-c]pyridin-6(7H)-yl)-2-oxoethyl)azepane-4-carboxylic acid TFA salt]
≤ 100	O=C(O)C1CCCN(CC(=O)N2CCc3c(C(F)(F)F)nn(Cc4ccc(Cl)cc4F)c3C2)CC1 (stereo not drawn) [Example 13-20, 1-(2-(1-(4-Chloro-2-fluorobenzyl)-3-(trifluoromethyl)-4,5-dihydro-1H-pyrazolo[3,4-c]pyridin-6(7H)-yl)-2-oxoethyl)azepane-4-carboxylic acid TFA salt]
≤ 100	O=C(O)C1CC2(C1)CN(CC(=O)N1CCc3c(C(F)(F)F)nn(Cc4ccc(Cl)cc4F)c3C1)C2 [Example 13-21, 2-(2-(1-(4-Chloro-2-fluorobenzyl)-3-(trifluoromethyl)-4,5-dihydro-1H-pyrazolo[3,4-c]pyridin-6(7H)-yl)-2-oxoethyl)-2-azaspiro[3.3]heptane-6-carboxylic acid TFA salt]
≤ 100	O=C(O)CC1CN(CC(=O)N2CCc3c(C(F)(F)F)nn(Cc4ccc(Cl)cc4F)c3C2)C1 [Example 13-22, 2-(1-(2-(1-(4-Chloro-2-fluorobenzyl)-3-(trifluoromethyl)-4,5-dihydro-1H-pyrazolo[3,4-c]pyridin-6(7H)-yl)-2-oxoethyl)azetidin-3-yl)acetic acid TFA salt]

same assay, conditions: IC50, FRET assay, FS-3 2 μM, ATX 1.0 μg/mL, 30 minutes preincubation, 2 hours reaction at room temperature

Compound	IC50 [nM]
O=C(O)C1CC2COCC(C1)N2CC(=O)N1CCc2c(C(F)(F)F)nn(Cc3ccc(F)cc3)c2C1 (stereo not drawn) [Example 13-26, 9-(2-(1-(4-Fluorobenzyl)-3-(trifluoromethyl)-4,5-dihydro-1H-pyrazolo[3,4-c]pyridin-6(7H)-yl)-2-oxoethyl)-3-oxa-9-azabicyclo[3.3.1]nonane-7-carboxylic acid TFA salt]	≤ 100
O=C(O)C1CC2COCC(C1)N2CC(=O)N1CCc2c(C(F)(F)F)nn(Cc3ccc(Cl)cc3F)c2C1 (stereo not drawn) [Example 13-27, 9-(2-(1-(4-Chloro-2-fluorobenzyl)-3-(trifluoromethyl)-4,5-dihydro-1H-pyrazolo[3,4-c]pyridin-6(7H)-yl)-2-oxoethyl)-3-oxa-9-azabicyclo[3.3.1]nonane-7-carboxylic acid TFA salt]	≤ 100
